From patent publication US12209080B2, “Polymorphic forms of kinase inhibitor compound, pharmaceutical composition containing same, preparation method therefor and use thereof” (EQUINOX SCIENCES, LLC, priority 2016, dated 2025)
≈ marks a conversion by molar mass, not a printed value.

Assays:
[1] = Determination of solubility in conventional solvents, visual inspection method; format: physicochemical; settings: thermodynamic from solid, 25° C.
Excerpt: If the sample is still not dissolved at a specific concentration, its solubility is expressed as “<specific concentration”;

[2] = Dynamic vapor sorption (DVS) / moisture absorption; format: physicochemical; settings: for weight change (DVS): range of 0% RH to 80% RH, 25° C.
Experimental: (4) Dynamic Water Adsorption (DVS), TA Instruments Q5000 TGA; controlling software: Thermal Advantage; analysis software: Universal Analysis; sample plate: platinum crucible; amount of the sample to be detected: 1-10 mg; protective gas: nitrogen; gas flow fate: 10 mL/min; detection method: equilibration at 25° C., humidity: 0%, isothermal treatment: 90 min, weight change to be detected: from 0% RH to 80% RH;
(§1) The moisture content, solubility and dissolution rate of the crystalline forms 1 and 2 were detected using the methods described above. The results are shown in Table 21, which indicate that the solubility, dissolution, and moisture content (total pharmaceutical properties) of the crystalline form 1 are higher than that of the crystalline form 2. Moreover, the crystalline forms 1 and 2 have the highest solubility in methanol.

[3] = Stability of the crystalline forms (HPLC, XRD, DSC); format: physicochemical; settings: for HPLC Maximum single impurity %: retention time (min) in brackets
Experimental: Experimental conditions: the samples were sealed and placed at 80° C. for 24 hours, and then placed in an open dish at 25° C./60% RH (relative humidity) and 40° C./75% RH for 7 days. Detection method: HPLC (only for the starting samples and samples placed at 80° C. for 24 hours), XRD, DSC.
In addition, the long-term stabilities of the crystalline form 1 for 12 months, 24 months, 36 months, and 48 months at 25° C./60% RH were also investigated.

[4] = Thermodynamic stability experiment in solvents at 60° C. (XRD); format: physicochemical; settings: one day
Experimental: The crystalline form 1, crystalline form 2, crystalline form 3 and crystalline form 7 of the compound of formula I were mixed with acetone, ethyl acetate, methanol, water and tetrahydrofuran respectively, and then kept at 60° C. for one day for the investigation of the thermodynamic stability of each crystalline form. Insoluble solid was recovered by filtration and analyzed by XRD. Analysis conditions: Shimadzu XRD-6000, CuK source (1.54056 A) 40 kV, 30 mA; detection angle: 5-50°, speed: 5°/min.

[5] = Solubility determination in water by HPLC; format: physicochemical; settings: suspension in water, 25° C.
Experimental: HPLC detection was performed using the crystalline form 1 as a standard, with its concentration of 204.2 μg*mL^−1 and its content set as 100%, and the detection was performed 7 times. The average peak area was 159.691 mAU*min (retention time was 7.4 min).

[6] = Solubility of crystalline forms 1 and 2 in various media; format: physicochemical
Excerpt: as §1

[7] = Dissolution rate of crystalline forms 1 and 2; format: physicochemical
Excerpt: as §1

[8] = Pharmacokinetic experiment, oral administration; format: in vivo, Sprague Dawley rats; settings: rat, oral 10 mg/kg; for AUC(0-t) / Cmax: suspension in 0.5% CMC, 10 mg/kg
Experimental: Twelve Sprague Dawley rats with weight of 230-250 g were randomly divided into 2 groups, wherein each group consisted of 3 males and 3 females. Crystalline forms 1 and 2 were separately prepared as suspensions in 0.5% carboxymethylcellulose (CMC). The rats were fasted for 12 hours with free access to water and then orally administered at a dose of 10 mg/kg. Blood samples (0.2-0.3 ml) before and after 15, 30, 60, 120, 240, 360, 480, 720, 1440 minutes of the oral administration were collected in heparin anticoagulation tubes, which were then centrifuged to obtain plasma. The plasma was stored at −20° C., followed by analysis using API 4000 MS in conjunction with a HPLC unit. The pharmacokinetic parameters Cmax and AUC were calculated according to the determined plasma concentrations and summarized in Table 22.

[9] = Tissue accumulation experiment in tumor-bearing mice; format: in vivo, BALB/cA nude mice; parameters: content in Tumor / content in Liver / content in Kidney / content in Heart / content in Lung / content in Muscle / content in Brain: unit not given here
Experimental: Human colon cancer H-29 cells were implanted into the armpits of BALB/cA nude mice. Seven days after the implantation of H-29 cells, 8 female mice were administered with the crystalline form 1 (twice a day) at 40 mg/kg or sunitinib at 40 mg/kg (once a day). The drug administration was continuous for 21 days. Plasma, tissue and tumor samples were collected for analysis 4 hours after the administration on the 22nd day morning.

[10] = Grinding stability experiment (XRD); format: physicochemical; settings: ground and sieved, US standard 200-300 mesh
Experimental: Crystalline form 1 was ground and sieved. The US standard 200-300 mesh sieved samples were collected and XRD analyzed. Analysis conditions: Shimadzu XRD-6000, CuK source (1.54056 Å) 40 kV, 30 mA; detection angle: 5-50°, speed: 5°/min.

[11] = 40 mg/kg for 21 days (crystalline form 1 twice a day, sunitinib once a day), 4 hours after administration on day 22

Solubility ([1]; acetone, organic solvent or mixture, read-out: solubility in acetone): 1000 to 2500 µg/mL (≈ 2280 to 5690 µM) | Solubility ([1]; acetonitrile, organic solvent or mixture, read-out: solubility in acetonitrile): < 1000 µg/mL | Solubility ([1]; ethanol, organic solvent or mixture, read-out: solubility in ethanol): 1000 to 2500 µg/mL (≈ 2280 to 5690 µM) | Solubility ([1]; ethyl acetate, organic solvent or mixture, read-out: solubility in ethyl acetate): < 1000 µg/mL | Solubility ([1]; methanol, organic solvent or mixture, read-out: solubility in methanol): 5000 to 12500 µg/mL (≈ 11400 to 28400 µM) | Solubility ([1]; methyl tert-butyl ether, organic solvent or mixture, read-out: solubility in methyl tert-butyl ether): < 1000 µg/mL | Solubility ([1]; n-heptane, organic solvent or mixture, read-out: solubility in n-heptane): < 1000 µg/mL | Solubility ([1]; tetrahydrofuran, organic solvent or mixture, read-out: solubility in tetrahydrofuran): 1000 to 2500 µg/mL (≈ 2280 to 5690 µM) | Solubility ([1]; toluene, organic solvent or mixture, read-out: solubility in toluene): < 1000 µg/mL | Solubility ([1]; water, read-out: solubility in water): < 1000 µg/mL | Moisture absorption ([2]; RH 50%): 2.015% | Moisture absorption ([2]; RH 80%): 2.578% | weight change (DVS) [2]: about 2.8% | weight change (DVS) ([2]; listed as Crystalline form 1): 2.8% | HPLC Purity % ([3]; 0 day (starting sample)): 99.67% | HPLC Maximum single impurity % ([3]; 0 day (starting sample)): 0.22 (4.73) % | long-term stability of the crystalline form ([3]; 12, 24, 36 and 48 months at 25° C./60% RH): substantially unchanged | crystalline form and melting point by XRD and DSC ([3]; sealed 80° C. 24 hours, open dish 25° C./60% RH and 40° C./75% RH for 7 days): substantially unchanged | HPLC Purity % ([3]; sealed, 80° C./24 h): 98.87% | HPLC Maximum single impurity % ([3]; sealed, 80° C./24 h): 1.03 (4.73) % | crystalline form recovered (XRD) ([4]; acetone, ethyl acetate, methanol or water, conversion not complete in methanol): converted to crystalline form 2 | crystalline form recovered (XRD) ([4]; tetrahydrofuran (THF)): to crystalline form 3 | concentration (solubility in water) ([5]; 0.5 hours): 1.12 µg/mL | concentration (solubility in water) ([5]; 4 hours): 1.32 µg/mL | Solubility ([6]; 1% Tween 80): 60 µg/mL (≈ 137 µM) | Solubility ([6]; 1% sodium lauryl sulfate): 3480 µg/mL (≈ 7920 µM) | Solubility ([6]; 2% sodium lauryl sulfate): 3790 µg/mL (≈ 8620 µM) | Solubility ([6]; PEG 400): 3660 µg/mL (≈ 8330 µM) | Solubility ([6]; acetonitrile): 680 µg/mL (≈ 1550 µM) | Solubility ([6]; aqueous solution with pH of 1.0-7.5): 0.12 to 0.53 µg/mL | solubility at 4 h ([6]; artificial gastric juice, simulated gastric fluid, thermodynamic from solid, second line of this heading (Table 21 r21)): 0.43 µg/mL (≈ 0.978 µM) | Solubility ([6]; ethanol): 2460 µg/mL (≈ 5600 µM) | Solubility ([6]; glycerin): 570 µg/mL (≈ 1300 µM) | Solubility ([6]; methanol): 8170 µg/mL (≈ 18600 µM) | Internal dissolution rate [7]: 0.022 mg/(min · cm^2) | Cmax relative to crystalline form 2 [8]: about 4 times | exposure (AUC) relative to crystalline form 2 [8]: about 3 times | AUC(0-t) ([8]; average value): 10488.3 ng·h/mL | Cmax ([8]; average value): 1340.3 ng/mL | AUC(0-t) ([8]; female 1): 3536.6 ng·h/mL | Cmax ([8]; female 1): 593.9 ng/mL | AUC(0-t) ([8]; female 2): 28571.4 ng·h/mL | Cmax ([8]; female 2): 2649.0 ng/mL | AUC(0-t) ([8]; female 3): 16634.2 ng·h/mL | Cmax ([8]; female 3): 2033.3 ng/mL | AUC(0-t) ([8]; male 1): 3180.0 ng·h/mL | Cmax ([8]; male 1): 716.6 ng/mL | AUC(0-t) ([8]; male 2): 6766.0 ng·h/mL | Cmax ([8]; male 2): 1071.3 ng/mL | AUC(0-t) ([8]; male 3): 4241.5 ng·h/mL | Cmax ([8]; male 3): 977.7 ng/mL | content in Brain [9, 11]: 9.3 | content in Heart [9, 11]: 124.8 | content in Kidney [9, 11]: 418.3 | content in Liver [9, 11]: 1,715.3 | content in Lung [9, 11]: 144.9 | content in Muscle [9, 11]: 77.6 | content in Plasma [9, 11]: 191.6 | content in Tumor [9, 11]: 153.4 | content in plasma, compared with sunitinib ([9]; 40 mg/kg twice a day, 21 days): comparable to that of sunitinib | stability during grinding (XRD pattern before and after) [10]: remained stable
Compound: Cc1[nH]c(/C=C2\C(=O)Nc3ccc(F)cc32)c(C)c1C(=O)N[C@H]1CCN(C(=O)N(C)C)C1 [crystalline form 1, 5-[5-fluoro-2-oxo-1,2-dihydro-indole-(3Z)-ylidenemethyl]-2,4-dimethyl-1H-pyrrole-3-carboxylic acid ((S)-1-dimethylcarbamoyl-pyrrolidin-3-yl)-amide]
tissue accumulation in all tested tissues, compared with sunitinib ([9]; 40 mg/kg twice a day, 21 days): significantly lower than that of sunitinib
